Active and inactive are the calls of the source.
Key:
[1] = target: T1, Probable nicotinate-nucleotide adenylyltransferase (Staphylococcus aureus (strain N315), UniProt P65502); format: functional, Staphylococcus aureus subsp. aureus N315;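 as to IC50 Mean: confirmatory dose-response retesting of NadD inhibitor hits first found in an ultra-high-throughput screen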
[2] = target: T2, Low molecular weight phosphotyrosine protein phosphatase (Homo sapiens, UniProt P24666); format: functional; conditions: read-out: IC50_Mean;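 also: Dose-response confirmation assay measuring inhibition of LMPTP enzyme activity by fluorescence intensity read-out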
T2 sequence (P24666 whole entry): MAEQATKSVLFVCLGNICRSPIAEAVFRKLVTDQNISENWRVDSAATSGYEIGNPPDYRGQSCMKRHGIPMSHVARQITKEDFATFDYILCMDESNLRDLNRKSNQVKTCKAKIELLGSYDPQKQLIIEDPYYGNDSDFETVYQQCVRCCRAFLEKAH

[3] = target: T3, Runt-related transcription factor 1/Core-binding factor subunit beta (Homo sapiens, UniProt Q01196+Q13951); experiment: disruptors of Runt domain/CBFb-SMMHC interaction – biochemical, FRET, Cerulean-Runt, Venus-CBFb-SMMHC, uHTS, […] (AID 1434); format: protein assay
[4] = target: Induced myeloid leukemia cell differentiation protein Mcl-1 (Homo sapiens, UniProt Q07820); format: functional
[5] = target: T3, Runt-related transcription factor 1/Core-binding factor subunit beta; experiment: Runt domain/CBFb-SMMHC interaction disruptors – biochemical, TR-FRET (AID 1438); format: protein assay
[6] = target: T4, Corticotropin-releasing factor receptor 2/Corticotropin-releasing factor-binding protein (Homo sapiens, UniProt P24387+Q13324); experiment: activators of CRF receptor 2 with binding protein – uHTS hits, confirmation (AID 602473); format: functional; conditions: read-out: EC50_Mean
T4 sequence (Q13324 whole entry): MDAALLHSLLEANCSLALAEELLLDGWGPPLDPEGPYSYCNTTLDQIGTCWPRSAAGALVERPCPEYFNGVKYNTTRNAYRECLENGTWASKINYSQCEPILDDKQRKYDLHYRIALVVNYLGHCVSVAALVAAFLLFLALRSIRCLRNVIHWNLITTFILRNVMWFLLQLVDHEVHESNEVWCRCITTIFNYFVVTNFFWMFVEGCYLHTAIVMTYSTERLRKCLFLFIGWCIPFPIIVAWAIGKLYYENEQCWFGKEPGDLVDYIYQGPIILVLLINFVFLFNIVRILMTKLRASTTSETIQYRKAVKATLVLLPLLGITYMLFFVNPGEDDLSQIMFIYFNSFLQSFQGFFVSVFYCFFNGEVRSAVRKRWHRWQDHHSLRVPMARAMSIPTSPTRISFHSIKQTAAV
T4 sequence (P24387 whole entry): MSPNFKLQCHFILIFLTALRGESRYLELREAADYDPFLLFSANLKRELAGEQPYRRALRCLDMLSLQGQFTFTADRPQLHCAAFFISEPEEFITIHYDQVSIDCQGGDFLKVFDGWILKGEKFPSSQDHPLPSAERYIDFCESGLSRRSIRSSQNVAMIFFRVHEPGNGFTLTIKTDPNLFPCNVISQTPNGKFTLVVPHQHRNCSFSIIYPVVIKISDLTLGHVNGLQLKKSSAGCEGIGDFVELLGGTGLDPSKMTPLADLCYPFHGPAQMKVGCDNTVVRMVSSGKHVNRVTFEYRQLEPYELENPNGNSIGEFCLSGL

[7] = target: T1, Probable nicotinate-nucleotide adenylyltransferase; format: functional, Staphylococcus aureus subsp. aureus N315; conditions: read-out: IC50_Mean
[8] = target: Lysine-specific demethylase 4C (Homo sapiens, UniProt Q9H3R0); experiment: inhibition of JMJD2C H3K9me3 demethylation – biochemical, DELFIA europium, cherry-picked samples, dose response (AID 488835); format: functional
[9] = target: T5, Tyrosine-protein phosphatase non-receptor type 22 (Homo sapiens, UniProt Q9Y2R2); format: functional
T5 sequence (Q9Y2R2 whole entry): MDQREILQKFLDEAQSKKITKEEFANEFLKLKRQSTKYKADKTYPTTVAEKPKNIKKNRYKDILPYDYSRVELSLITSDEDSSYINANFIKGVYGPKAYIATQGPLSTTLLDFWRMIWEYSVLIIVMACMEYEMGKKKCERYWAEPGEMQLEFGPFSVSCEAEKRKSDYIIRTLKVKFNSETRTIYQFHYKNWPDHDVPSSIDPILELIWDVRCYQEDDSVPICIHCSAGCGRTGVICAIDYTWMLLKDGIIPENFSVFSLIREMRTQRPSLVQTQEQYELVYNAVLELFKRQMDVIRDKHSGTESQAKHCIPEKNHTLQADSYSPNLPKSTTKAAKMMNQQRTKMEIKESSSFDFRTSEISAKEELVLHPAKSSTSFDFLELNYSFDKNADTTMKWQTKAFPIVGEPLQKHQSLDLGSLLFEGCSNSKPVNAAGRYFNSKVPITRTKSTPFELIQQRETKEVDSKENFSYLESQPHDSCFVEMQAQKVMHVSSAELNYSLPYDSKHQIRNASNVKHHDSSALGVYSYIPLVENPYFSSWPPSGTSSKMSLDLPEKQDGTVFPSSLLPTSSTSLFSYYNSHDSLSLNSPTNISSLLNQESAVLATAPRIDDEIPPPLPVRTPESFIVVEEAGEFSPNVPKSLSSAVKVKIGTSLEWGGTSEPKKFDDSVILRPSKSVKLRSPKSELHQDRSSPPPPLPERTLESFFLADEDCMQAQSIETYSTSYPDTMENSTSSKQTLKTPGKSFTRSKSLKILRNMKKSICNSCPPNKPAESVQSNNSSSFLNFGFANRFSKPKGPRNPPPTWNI

[10] = target: T5, Tyrosine-protein phosphatase non-receptor type 22; format: functional; remark: listed apart in the source
[11] = target: T6, Tyrosine-protein phosphatase non-receptor type 7 (Homo sapiens, UniProt P35236); format: functional
T6 sequence (P35236 whole entry): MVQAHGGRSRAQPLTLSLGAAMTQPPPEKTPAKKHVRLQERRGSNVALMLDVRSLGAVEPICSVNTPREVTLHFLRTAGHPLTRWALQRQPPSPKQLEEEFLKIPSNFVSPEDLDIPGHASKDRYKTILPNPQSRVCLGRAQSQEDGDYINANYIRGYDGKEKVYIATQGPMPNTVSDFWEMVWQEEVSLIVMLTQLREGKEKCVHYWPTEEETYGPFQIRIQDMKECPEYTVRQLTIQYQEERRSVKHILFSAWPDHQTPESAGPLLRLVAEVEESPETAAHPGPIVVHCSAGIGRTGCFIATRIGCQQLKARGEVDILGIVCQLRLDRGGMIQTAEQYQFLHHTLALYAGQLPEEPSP

[12] = target: T7, Peroxisome proliferator-activated receptor gamma (Homo sapiens, UniProt P37231); experiment: PPARg transcriptional activation, reporter cells – cell-based, luminescence, assay provider, dose response (AID 504447); format: functional
T7 sequence (P37231 whole entry): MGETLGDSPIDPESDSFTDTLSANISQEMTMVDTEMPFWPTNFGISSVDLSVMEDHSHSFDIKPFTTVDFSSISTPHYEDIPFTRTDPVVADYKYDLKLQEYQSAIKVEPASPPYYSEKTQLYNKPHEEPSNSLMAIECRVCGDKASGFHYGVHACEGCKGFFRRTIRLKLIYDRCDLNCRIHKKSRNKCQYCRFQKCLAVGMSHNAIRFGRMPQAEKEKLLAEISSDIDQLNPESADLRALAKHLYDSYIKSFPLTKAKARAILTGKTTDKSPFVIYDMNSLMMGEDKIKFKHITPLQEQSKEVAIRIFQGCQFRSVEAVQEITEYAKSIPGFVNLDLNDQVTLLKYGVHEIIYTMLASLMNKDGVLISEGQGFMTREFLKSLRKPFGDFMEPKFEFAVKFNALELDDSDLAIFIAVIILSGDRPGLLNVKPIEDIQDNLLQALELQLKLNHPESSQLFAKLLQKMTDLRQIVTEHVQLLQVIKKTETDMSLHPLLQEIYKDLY

[13] = target: T7, Peroxisome proliferator-activated receptor gamma; experiment: competitive ligand displacement at PPARg – biochemical, fluorescence polarization, PolarScreen, PPARg partial agonist project, dose response (AID 504453)
[14] = target: T7, Peroxisome proliferator-activated receptor gamma; experiment: competitive ligand displacement at PPARg – biochemical, TR-FRET, LanthaScreen, PPARg partial agonist project, dose response (AID 504446)
[15] = target: G-protein coupled receptor 55 (Homo sapiens, UniProt Q9Y2T6); experiment: SAR Analysis of Selective Antagonists of GPR55 using an Image-Based Assay - Set 4. [Related pubchem assays (depositor defined):AID2013, AID2026]; format: functional;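 also: antagonism of response to 5 µM lysophosphatidylinositol agonist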
Cannabinoid receptor 2 [16] = target: T8, Cannabinoid receptor 2 (Homo sapiens, UniProt P34972); experiment: SAR analysis of agonists of the Cannabinoid Receptor 2 using an Image-Based Assay - Set 3. [Related pubchem assays (depositor defined):AID2013, AID2026]; format: functional
Cannabinoid receptor 1 [17] = target: T9, Cannabinoid receptor 1 (Homo sapiens, UniProt P21554); experiment: SAR analysis of agonists of the Cannabinoid Receptor 1 using an Image-Based Assay - Set 4. [Related pubchem assays (depositor defined):AID2013, AID2026]; format: functional
Cannabinoid receptor 1 [18] = target: T9, Cannabinoid receptor 1; experiment: SAR analysis of antagonists of the Cannabinoid Receptor 1 using an Image-Based Assay - Set 4. [Related pubchem assays (depositor defined):AID2013, AID2026]; format: functional
[19] = target: T10, G-protein coupled receptor 35 (Homo sapiens, UniProt Q9HC97); experiment: SAR analysis of Agonists of the GPR35 Receptor using an Image-Based Assay - Set 4. [Related pubchem assays (depositor defined):AID2013, AID2026]; format: functional
[20] = target: T10, G-protein coupled receptor 35; experiment: SAR analysis of Antagonists of the GPR35 Receptor using an Image-Based Assay - Set 6. [Related pubchem assays (depositor defined):AID2013, AID2026]; format: functional
Cannabinoid receptor 2 [21] = target: T8, Cannabinoid receptor 2; experiment: SAR analysis of antagonists of the Cannabinoid Receptor 2 using an Image-Based Assay - Set 3. [Related pubchem assays (depositor defined):AID2013, AID2026]; format: functional
[22] = target: T11, Kappa-type opioid receptor (Homo sapiens, UniProt P41145); experiment: SAR analysis of small molecule agonists of the kappa opioid receptor via a luminescent beta-arrestin assay. [Related pubchem assays (depositor defined):AID1777, AID1786, AID1966, AID2133, AID2136, AID2348, AID2352, AID2357, AID2359, AID2370, AID2420, AID2478, AID2491, AID2492, AID2493, AID2497, AID2498, AID2500, AID449737, AID488822, AID488842]; format: functional
[23] = target: T12, Delta-type opioid receptor (Homo sapiens, UniProt P41143); experiment: DOR agonists, SAR follow-up, image-based (AID 2370); format: functional
Mu-type opioid receptor [24] = target: T13, Mu-type opioid receptor (Homo sapiens, UniProt P35372); experiment: mu opioid receptor blockers – image-based, SAR follow-up (AID 2420); format: functional;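 also: compounds added before stimulation of receptor with agonist DAMGO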
[25] = target: T12, Delta-type opioid receptor; experiment: delta opioid receptor blockers – image-based, SAR follow-up (AID 2357); format: functional
Mu-type opioid receptor [26] = target: T13, Mu-type opioid receptor; experiment: mu opioid receptor activators, image-based, SAR follow-up (AID 2352); format: functional
[27] = target: T11, Kappa-type opioid receptor; experiment: kappa opioid receptor blockers, image-based, SAR follow-up (AID 2348); format: functional
[28] = target: Potassium voltage-gated channel subfamily KQT member 2 (Rattus norvegicus, UniProt O88943); experiment: rat KCNQ2 current potentiators – automated patch clamp, KCNQ2-CHO cells, SAR follow-up (AID 493113); format: functional
[29] = target: Intestinal-type alkaline phosphatase (Mus musculus, UniProt P24822); experiment: PubChem AID 488785; format: functional
[30] = target: Intestinal-type alkaline phosphatase (Homo sapiens, UniProt P09923); experiment: inhibition of human intestinal alkaline phosphatase – biochemical, dose response (AID 488876); format: functional
Large T antigen = Large T antigen (Simian virus 40, UniProt P03070); format: functional, Betapolyomavirus macacae;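 also: Confirmatory-stage PubChem screen for compounds that inhibit SV40 T antigen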
[31] = target: Alkaline phosphatase, tissue-nonspecific isozyme (Homo sapiens, UniProt P05186); experiment: TNAP enzyme inhibition by screening hits, dose response, selectivity assay for mouse IAP inhibitor project, biochemical, human TNAP, uHTS hits (AID 488906); format: functional
Chain of Alkaline phosphatase, tissue-nonspecific isozyme (P05186 whole entry): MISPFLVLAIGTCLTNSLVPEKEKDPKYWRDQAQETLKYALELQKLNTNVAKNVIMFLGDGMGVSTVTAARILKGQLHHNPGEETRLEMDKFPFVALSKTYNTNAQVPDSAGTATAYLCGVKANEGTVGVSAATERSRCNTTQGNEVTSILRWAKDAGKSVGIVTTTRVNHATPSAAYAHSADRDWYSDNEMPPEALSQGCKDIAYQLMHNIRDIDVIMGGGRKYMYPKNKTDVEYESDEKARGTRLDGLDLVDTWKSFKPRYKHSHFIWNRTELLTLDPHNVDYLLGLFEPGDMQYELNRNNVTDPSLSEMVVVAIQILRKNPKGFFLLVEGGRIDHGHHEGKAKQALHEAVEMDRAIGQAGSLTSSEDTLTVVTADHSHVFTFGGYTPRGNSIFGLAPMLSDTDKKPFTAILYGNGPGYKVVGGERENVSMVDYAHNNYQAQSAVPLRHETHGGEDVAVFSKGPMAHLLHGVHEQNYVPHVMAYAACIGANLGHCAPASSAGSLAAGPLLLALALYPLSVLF

T13 sequence (P35372 whole entry): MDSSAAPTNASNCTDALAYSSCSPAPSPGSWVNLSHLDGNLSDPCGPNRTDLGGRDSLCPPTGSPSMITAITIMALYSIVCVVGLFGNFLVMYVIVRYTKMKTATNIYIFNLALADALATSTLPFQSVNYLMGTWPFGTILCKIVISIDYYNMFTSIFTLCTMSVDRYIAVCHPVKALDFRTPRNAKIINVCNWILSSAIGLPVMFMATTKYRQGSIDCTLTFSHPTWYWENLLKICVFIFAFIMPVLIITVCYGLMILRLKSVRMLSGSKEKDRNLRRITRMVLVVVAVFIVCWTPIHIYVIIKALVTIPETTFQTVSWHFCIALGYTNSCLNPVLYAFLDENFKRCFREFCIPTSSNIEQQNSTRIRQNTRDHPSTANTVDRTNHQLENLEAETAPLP
T10 sequence (Q9HC97 whole entry): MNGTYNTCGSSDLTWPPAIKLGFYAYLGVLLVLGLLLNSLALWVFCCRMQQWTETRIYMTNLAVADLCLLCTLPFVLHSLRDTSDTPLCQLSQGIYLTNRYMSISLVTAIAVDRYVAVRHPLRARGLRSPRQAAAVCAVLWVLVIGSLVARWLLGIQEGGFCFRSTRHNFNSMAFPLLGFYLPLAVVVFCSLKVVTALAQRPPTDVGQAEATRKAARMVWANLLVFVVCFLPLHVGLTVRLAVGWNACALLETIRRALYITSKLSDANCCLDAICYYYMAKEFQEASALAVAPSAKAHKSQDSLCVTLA
T3 sequence (Q01196 whole entry, the tested form may be a part): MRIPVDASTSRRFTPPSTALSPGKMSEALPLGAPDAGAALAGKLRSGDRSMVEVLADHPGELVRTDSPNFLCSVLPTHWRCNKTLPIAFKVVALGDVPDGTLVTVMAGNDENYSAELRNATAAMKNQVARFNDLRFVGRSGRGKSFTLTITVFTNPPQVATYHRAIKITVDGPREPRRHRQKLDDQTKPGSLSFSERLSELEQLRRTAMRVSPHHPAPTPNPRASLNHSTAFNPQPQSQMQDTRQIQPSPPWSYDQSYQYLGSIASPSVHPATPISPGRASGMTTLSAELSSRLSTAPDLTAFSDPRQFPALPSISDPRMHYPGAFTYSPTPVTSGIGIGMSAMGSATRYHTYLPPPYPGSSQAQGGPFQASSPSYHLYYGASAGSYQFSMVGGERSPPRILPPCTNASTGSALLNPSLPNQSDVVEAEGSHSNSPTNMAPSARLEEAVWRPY
T3 sequence (Q13951 whole entry, the tested form may be a part): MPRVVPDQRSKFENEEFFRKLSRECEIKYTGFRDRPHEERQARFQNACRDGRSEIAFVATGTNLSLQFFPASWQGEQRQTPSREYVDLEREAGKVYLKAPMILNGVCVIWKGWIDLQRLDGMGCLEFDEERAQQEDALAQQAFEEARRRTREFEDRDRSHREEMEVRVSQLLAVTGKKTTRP
T11 sequence (P41145 whole entry): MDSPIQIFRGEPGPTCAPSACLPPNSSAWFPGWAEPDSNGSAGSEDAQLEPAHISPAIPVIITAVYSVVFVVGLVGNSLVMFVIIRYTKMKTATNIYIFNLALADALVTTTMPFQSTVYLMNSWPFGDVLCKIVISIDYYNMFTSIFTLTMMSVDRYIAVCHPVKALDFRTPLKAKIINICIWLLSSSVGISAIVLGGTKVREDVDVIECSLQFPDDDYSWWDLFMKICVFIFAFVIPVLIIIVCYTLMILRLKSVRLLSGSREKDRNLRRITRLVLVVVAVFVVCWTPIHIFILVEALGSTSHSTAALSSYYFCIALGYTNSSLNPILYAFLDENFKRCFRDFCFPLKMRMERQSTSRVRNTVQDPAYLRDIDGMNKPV
T8 sequence (P34972 whole entry): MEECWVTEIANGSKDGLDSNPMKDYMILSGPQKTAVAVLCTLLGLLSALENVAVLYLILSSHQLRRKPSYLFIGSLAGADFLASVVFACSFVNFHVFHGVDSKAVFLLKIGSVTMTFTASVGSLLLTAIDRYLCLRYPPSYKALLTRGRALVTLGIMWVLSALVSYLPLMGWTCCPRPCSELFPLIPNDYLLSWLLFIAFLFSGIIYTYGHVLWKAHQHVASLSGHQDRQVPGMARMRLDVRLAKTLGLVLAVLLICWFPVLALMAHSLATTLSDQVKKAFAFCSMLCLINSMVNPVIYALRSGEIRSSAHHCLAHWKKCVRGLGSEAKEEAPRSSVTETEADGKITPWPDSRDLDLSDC
T9 sequence (P21554 whole entry): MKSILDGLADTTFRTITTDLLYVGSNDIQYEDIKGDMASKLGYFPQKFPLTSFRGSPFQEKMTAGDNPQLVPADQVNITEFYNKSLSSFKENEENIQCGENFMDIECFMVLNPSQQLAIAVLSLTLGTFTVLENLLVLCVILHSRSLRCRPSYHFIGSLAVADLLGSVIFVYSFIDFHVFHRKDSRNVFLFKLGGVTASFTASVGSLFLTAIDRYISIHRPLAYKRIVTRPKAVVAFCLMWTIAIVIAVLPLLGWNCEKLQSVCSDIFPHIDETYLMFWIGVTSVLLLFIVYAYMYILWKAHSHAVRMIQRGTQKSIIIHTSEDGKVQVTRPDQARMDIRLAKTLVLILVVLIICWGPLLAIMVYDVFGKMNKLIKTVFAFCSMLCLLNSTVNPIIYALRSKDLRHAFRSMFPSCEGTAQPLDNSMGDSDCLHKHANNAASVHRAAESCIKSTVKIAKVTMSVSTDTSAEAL
T1 sequence (P65502 whole entry): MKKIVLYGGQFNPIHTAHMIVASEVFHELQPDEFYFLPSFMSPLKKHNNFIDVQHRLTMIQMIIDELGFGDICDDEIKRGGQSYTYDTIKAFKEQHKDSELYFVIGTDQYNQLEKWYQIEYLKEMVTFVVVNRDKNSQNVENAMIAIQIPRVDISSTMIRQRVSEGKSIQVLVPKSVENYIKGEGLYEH
T12 sequence (P41143 whole entry): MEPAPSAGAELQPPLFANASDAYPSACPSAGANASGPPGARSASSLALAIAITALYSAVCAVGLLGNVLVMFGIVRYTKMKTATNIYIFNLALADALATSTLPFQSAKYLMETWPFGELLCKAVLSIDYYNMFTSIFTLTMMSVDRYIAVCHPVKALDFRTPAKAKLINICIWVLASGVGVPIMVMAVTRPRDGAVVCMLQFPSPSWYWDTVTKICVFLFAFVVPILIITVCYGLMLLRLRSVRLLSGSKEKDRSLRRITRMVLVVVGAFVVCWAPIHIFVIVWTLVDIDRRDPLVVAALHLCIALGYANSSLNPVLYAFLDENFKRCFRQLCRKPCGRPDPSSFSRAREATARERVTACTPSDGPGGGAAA
Chain of Intestinal-type alkaline phosphatase (Mus musculus, UniProt P24822) (P24822 whole entry): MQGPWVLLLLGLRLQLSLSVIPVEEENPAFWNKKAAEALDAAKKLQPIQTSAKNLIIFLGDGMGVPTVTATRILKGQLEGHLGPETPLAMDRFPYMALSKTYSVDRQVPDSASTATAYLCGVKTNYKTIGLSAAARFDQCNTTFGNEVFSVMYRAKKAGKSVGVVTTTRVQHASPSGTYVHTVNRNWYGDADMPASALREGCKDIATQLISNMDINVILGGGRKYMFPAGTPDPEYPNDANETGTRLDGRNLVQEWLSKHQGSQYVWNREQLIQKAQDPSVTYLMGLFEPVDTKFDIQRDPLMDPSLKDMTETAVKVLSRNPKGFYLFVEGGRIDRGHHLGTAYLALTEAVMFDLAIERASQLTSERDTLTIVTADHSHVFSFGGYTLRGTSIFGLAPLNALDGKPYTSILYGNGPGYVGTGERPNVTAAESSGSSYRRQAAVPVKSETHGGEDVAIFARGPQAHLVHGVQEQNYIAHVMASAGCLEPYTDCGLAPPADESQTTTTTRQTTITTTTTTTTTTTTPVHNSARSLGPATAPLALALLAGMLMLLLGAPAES
Chain of Induced myeloid leukemia cell differentiation protein Mcl-1 (Q07820 whole entry, the tested form may be a part): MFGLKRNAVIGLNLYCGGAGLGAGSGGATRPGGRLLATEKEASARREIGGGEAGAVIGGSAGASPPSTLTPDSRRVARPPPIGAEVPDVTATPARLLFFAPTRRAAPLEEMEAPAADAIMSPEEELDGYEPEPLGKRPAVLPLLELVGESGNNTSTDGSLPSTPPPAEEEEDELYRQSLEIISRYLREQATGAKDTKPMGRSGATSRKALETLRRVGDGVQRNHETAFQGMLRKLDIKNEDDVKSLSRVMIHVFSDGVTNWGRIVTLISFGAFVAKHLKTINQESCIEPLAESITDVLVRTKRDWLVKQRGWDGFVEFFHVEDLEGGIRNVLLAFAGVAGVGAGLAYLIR
Chain of G-protein coupled receptor 55 (Q9Y2T6 whole entry): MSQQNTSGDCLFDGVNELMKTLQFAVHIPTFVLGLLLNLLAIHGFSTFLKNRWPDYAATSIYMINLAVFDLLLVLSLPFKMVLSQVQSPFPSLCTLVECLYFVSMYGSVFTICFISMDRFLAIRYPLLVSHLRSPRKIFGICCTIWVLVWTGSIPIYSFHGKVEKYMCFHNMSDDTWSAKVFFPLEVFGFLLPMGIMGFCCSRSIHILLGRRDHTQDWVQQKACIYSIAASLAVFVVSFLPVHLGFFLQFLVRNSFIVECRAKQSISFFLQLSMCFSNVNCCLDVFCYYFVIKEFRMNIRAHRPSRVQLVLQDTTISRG

Oc1nc(C(Cl)Cl)nc2sc3c(c12)CCN(Cc1ccccc1)C3
IC50 [1]: 9.04 µM (active)
IC50 [2]: 7.87 µM (active)
IC50 [3]: 2.89 µM (active)
IC50 [4]: 3.75 µM (not active)
IC50 [5]: 13.4 µM (active)
EC50 [6]: > 53 µM (inactive)
IC50 [7]: 18.7 µM (active)

Cc1ccc(-c2csc(NC(=O)CSc3nc(C)cc(O)n3)n2)cc1
AC50 [8]: 10.6 µM (active)

CCCC(=O)NCCc1cc2ccc(C)c(C)c2nc1O
IC50 [9]: > 79.4 µM (inactive)
IC50 [10]: > 79.4 µM (inactive)
IC50 [11]: > 79.4 µM (inactive)

COc1ccc2nc(N3C(=O)C(O)=C(C(=O)c4ccco4)C3c3ccc(C)o3)sc2c1 (configuration not stated)
EC50 [12]: 5 µM (active)
IC50 [13]: 5 µM (active)
IC50 [14]: 1.2 µM (active)

N=c1c(C(=O)NCCc2ccccc2)cc2c(=O)n3ccccc3nc2n1C1CCCC1
IC50 [15]: > 32 µM (inactive)
EC50 (Cannabinoid receptor 2 [16]): 3.61 µM (active)
EC50 (Cannabinoid receptor 1 [17]): > 32 µM (inactive)
IC50 (Cannabinoid receptor 1 [18]): > 32 µM (inactive)
EC50 [19]: > 32 µM (inactive)
IC50 [20]: > 32 µM (inactive)
IC50 (Cannabinoid receptor 2 [21]): > 32 µM (inactive)

COc1ccc(CN(Cc2ccccn2)C(=O)CN2C(=O)COc3ccccc32)cc1
EC50 [22]: > 10 µM (inactive)
EC50 [23]: > 32 µM (inactive)
IC50 (Mu-type opioid receptor [24]): > 32 µM (inactive)
IC50 [25]: > 32 µM (inactive)
EC50 (Mu-type opioid receptor [26]): > 32 µM (inactive)
IC50 [27]: > 32 µM (inactive)

Nc1cccc(NC(=O)C2CC3CCC2C3)n1 (configuration not stated)
EC50 [28]: 1.81 µM (active)

O=S(=O)(c1ccc(NC(=S)N/N=C/c2ccc(O)c(O)c2)cc1)N1CCOCC1
IC50 [29]: 2.84 µM (active)
IC50 [30]: < 0.195 µM (active)
IC50 (Large T antigen): 38.4 µM (active)
IC50 [31]: 15.1 µM (active)
